Test [1] has as its target α-glucosidase (Saccharomyces cerevisiae, UniProt P53341). As to the kind of experiment: α-Glucosidase inhibition assay (pNPG substrate, 405 nm). The note with it: Table 1, unit inferred. Type of test: biochemical.
Method: α-Glucosidase inhibition activity of the fractions and pure compounds (both PA and FL) was determined using the method of [Li et al. (2005)], while few modifications were made, according to system suitability. […] The decrease in absorption spectrum of reaction mixture indicated the inhibition of α-glucosidase activity of the sample under test. Assays were conducted in triplicate in 96-well microtitre plates. […] Percentage of inhibition was calculate by using following formula.
(1) Inhibitory activity=(OD control−OD test sample)/OD control×100
IC50 was calculated by using table curve ASIN software (2D v4) through linear regression analysis.
Test [2] has as its target DPP-4 (Homo sapiens, UniProt P27487). As to the kind of experiment: DPP-4 inhibition assay (fluorometric, Gly-Pro-AMC). The note with it: pure compound and positive control. Type of test: biochemical. As to the method:
DPP-4 inhibition activity was assessed by using fluorometric technique, following the method documented by [Saleem et al., 2014]. This method calculates the quantity of free AMC (7-amino-4-methyl-coumarin). The AMC is released from the Gly-Pro-AMC which is the substrate of DPP-4. Experiment was performed in triplicate. Fluorescence was measured at Em 430 nm following excitation at Ex351 nm using a Tecan safire desktop fluorometer (Reading, England, United Kingdom). 50 mM HEPES buffer was used for preparation of each sample, whose pH was 7.4. To each well we added DPP-4 (20 μl 1 U/ml), test sample (20 μl) and […]. Plates were placed at 37°C for 1 h and then 3 mM acetic acid (100 μl) was pipetted to stop the reaction. We used Berberine (13 mM), as a control for each experiment, as already reported ([Al-Masri et al., 2009]). IC50 for inhibition of DPP-4 was calculated for each sample.

The test system of test [3] is AMPK. Briefly: AMPK activation potential in primary hepatocytes (western blot). Format: cell-based, C57BL/6 mice. The following applies: 8 h, PA 20 μM, glucagon 2 μM. As to the method:
To evaluate the AMPK activation potential of PA we performed in vitro analysis. We used primary hepatocytes, derived from C57BL/6 mice (Cell Biologics; Cat. C57-6224F). Hepatocytes were kept in M199 (Corning), supplemented with FBS (fetal bovine serum 10%) and glutagro (1% Corning). Hepatocytes were then serum starved, overnight, and prior to procedure in RPMI 1640 (United States Biological Life Sciences, R8999). 8 h prior to harvest, cells were treated with glucagon (2 μM), or test sample (20 μM). Cells were rinsed with ice cold PBS, twice, after harvest and were placed on ice until the extraction of protein was carried out. Assay was conducted in triplicate with three plates for each treatment. Protein from cells was hauled out; quantified and western blot was performed to assess the activation of AMPK after treatment with PA and compared it with untreated control and the cells treated with glucagon.
Extraction of proteins and western blot analysis was carried out, as we already reported ([Akhtar et al., 2016]). Briefly, lysis buffer was added to the harvested cells. […] Concentration of protein in each lysate was measured using Pierce BCA protein assay kit (Thermo Scientific), as per manufacturer’s protocol. […]

Chain of DPP-4 (P27487 whole entry, species assumed): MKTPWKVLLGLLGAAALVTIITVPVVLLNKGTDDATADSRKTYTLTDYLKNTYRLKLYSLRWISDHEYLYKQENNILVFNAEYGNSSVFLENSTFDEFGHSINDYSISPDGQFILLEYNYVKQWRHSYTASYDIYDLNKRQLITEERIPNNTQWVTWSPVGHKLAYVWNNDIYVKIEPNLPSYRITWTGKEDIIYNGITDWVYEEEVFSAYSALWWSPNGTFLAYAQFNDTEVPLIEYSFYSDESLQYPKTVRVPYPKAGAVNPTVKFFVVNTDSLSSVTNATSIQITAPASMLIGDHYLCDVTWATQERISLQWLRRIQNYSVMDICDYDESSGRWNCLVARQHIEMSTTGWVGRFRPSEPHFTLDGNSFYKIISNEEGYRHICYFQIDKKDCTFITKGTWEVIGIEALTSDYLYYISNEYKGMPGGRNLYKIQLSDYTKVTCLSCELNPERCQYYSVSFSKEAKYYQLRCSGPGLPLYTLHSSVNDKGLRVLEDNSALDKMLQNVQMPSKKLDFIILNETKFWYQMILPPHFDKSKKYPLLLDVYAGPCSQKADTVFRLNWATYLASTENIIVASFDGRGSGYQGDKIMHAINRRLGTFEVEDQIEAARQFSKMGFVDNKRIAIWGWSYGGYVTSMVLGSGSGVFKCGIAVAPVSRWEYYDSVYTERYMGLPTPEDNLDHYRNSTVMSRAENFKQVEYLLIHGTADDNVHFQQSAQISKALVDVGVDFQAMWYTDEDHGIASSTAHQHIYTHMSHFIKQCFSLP
Chain of α-glucosidase (P53341 whole entry): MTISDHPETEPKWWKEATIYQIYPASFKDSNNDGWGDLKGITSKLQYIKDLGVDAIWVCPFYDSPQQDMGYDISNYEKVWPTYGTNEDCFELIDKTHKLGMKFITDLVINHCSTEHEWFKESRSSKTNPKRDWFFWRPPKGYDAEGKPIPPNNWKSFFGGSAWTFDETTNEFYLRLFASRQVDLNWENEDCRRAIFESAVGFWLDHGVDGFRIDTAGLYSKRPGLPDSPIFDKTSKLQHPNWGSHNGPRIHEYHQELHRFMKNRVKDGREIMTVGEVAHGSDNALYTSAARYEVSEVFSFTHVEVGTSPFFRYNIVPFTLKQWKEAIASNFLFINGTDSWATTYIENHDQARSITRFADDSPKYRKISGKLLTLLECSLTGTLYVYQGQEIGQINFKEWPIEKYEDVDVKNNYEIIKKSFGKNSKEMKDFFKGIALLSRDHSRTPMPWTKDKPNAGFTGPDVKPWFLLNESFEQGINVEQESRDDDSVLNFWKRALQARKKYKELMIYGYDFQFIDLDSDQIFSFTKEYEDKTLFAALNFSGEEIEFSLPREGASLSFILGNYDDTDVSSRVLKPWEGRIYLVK

Regarding 3,4,5,7-Flavantetrol, the IC50 (as a rule, the concentration needed to halve the response being measured) in test [1] was determined as 200 µM.
`COc1ccc2cc3[n+](cc2c1OC)CCc1cc2c(cc1-3)OCO2` [Berberine, reference compound] returned an IC50 in test [2] of 27.4 ± 2.2 µM.
As to glucagon [reference compound], in test [3], the “AMPK activation (phosphorylation of AMPK at Thr172)” value is on record as “no AMPK activation” and the “phosphorylation of ACC to p-ACC at S79” value is “not observed”.

(Values after article PMC6277780, “A Multi-Mode Bioactive Agent Isolated From Ficus microcarpa L. Fill. With Therapeutic Potential for Type 2 Diabetes Mellitus” (Frontiers in Pharmacology, 2018).)
